In patent publication US20070249673A1, “Method for administering tolperisone” (priority 2006, published 2007):
Read-outs that look alike come from different tables or passages of the source. One block for each compound: values may come before it.

Columns and labels:
[1] = clinical; conditions: human, in vivo
Procedure: (§1) Dosing Regimen: Subjects in each cohort received tolperisone according to the following regimen.
(§2) Blood samples for the measurement of the plasma concentrations of tolperisone and metabolites M1 (4-hydroxymethyltolperisone) and M4 (4-carboxy-tolperisone) were collected at the times shown in Table 8.
(§3) Bioanalytical: Plasma concentrations of tolperisone and metabolites M1 and M4 were measured using a validated LC/MS/MS assay by Pharm-analyt Laboratory, Baden Austria. The limits of quantitation (LOQ) for tolperisone, Mi, and M4 in plasma were 0.2 ng/ML, and 0.01 μg/mL, respectively.
(§4) Pharmacokinetic Analyses: Pharmacokinetic parameters for tolperisone, M1, and M4 were calculated using non-compartmental analysis. Only plasma concentrations greater than or equal to the LOQ for the respective assay were used in the pharmacokinetic analyses. Actual blood sampling times were used in all pharmacokinetic analyses. […] All pharmacokinetic calculations were done using SAS® for Windows® Version 9.1.3.
(§5) The maximum plasma concentration (Cmax) and time to Cmax (Tmax) were taken directly from the data. The elimination rate constant, λz, was calculated as the negative of the slope of the terminal log-linear segment of the plasma concentration-time curve. The range of data to be used for each subject and treatment was determined by visual inspection of a semi-logarithmic plot of concentration versus time. Elimination half-life (t½) was calculated according to the following equation: [formula] Area under the curve to the final sample with a concentration greater than or equal to the LOQ [(AUC(0-t)] was calculated using the linear trapezoidal method and extrapolated to infinity [AUC(inf)] using: [formula] where Ctf is the final concentration≧LOQ.
(§6) The maximum plasma concentration (Cmax) and time to Cmax (Tmax) were taken directly from the data.
(§7) The maximum plasma concentration (Cmax) and time to Cmax (Tmax) were taken directly from the data. The elimination rate constant, λz, and half-life, t½, were calculated as described for the 0800 dose on Day 1 (above). Areas under the curve to the final sample with a concentration greater than or equal to the LOQ [(AUC(O-t)] and over the 6-hour dosing interval [AUC(0-6)] were calculated using the linear trapezoidal method.

[2] = human, in vivo
Procedure: as §1, §2, §3, §4, §5, §6, §7

[3] = human, in vivo; remark: listed apart in the source
[4] = Food effect of tolperisone: open-label, single dose, 4-way crossover pharmacokinetic study in healthy male volunteers; conditions: for AUC0-oo / AUC0-tlast / Cmax / Tmax / t1/2 / λz: 150 mg single oral dose, plasma, mean ± SD
[5] = Pharmacokinetic profile of tolperisone after single and multi-dosing (150 mg regimen over 7 days) in healthy subjects under fasted and fed conditions; conditions: for AUC(0-t) / AUC(inf) / Cmax / t½ / λz / AUC(0-6): mean ± SD; for Tmax: median
Procedure: as §1, §2, §3, §4, §5, §6, §7

[6] = Day 1 - 0800 Dose, Fasted, Females
[7] = Day 1 - 0800 Dose, Fasted, Males
[8] = Day 1 - 0800 Dose, Fasted, both sexes
[9] = Day 1 - 0800 Dose, Fed, Females
[10] = Day 1 - 0800 Dose, Fed, both sexes
[11] = Day 1, fed vs fasted, both sexes
[12] = Day 2 - 2200 Dose, Fasted, Females
[13] = Day 2 - 2200 Dose, Fasted, Males
[14] = Day 2 - 2200 Dose, Fasted, both sexes
[15] = Day 2 - 2200 Dose, Fed, Females
[16] = Day 2 - 2200 Dose, Fed, both sexes
[17] = Day 7 - 0800 Dose, Fasted, Females
[18] = Day 7 - 0800 Dose, Fasted, Males
[19] = Day 7 - 0800 Dose, Fasted, both sexes
[20] = Day 7 - 0800 Dose, Fed, Females
[21] = Day 7 - 0800 Dose, Fed, both sexes
[22] = Day 7 - 2200 Dose, Fasted, Females
[23] = Day 7 - 2200 Dose, Fasted, Males
[24] = Day 7 - 2200 Dose, Fasted, both sexes
[25] = Day 7 - 2200 Dose, Fed, Females
[26] = Day 7 - 2200 Dose, Fed, both sexes

- AUC(0-t) ([1]; both, AUC (0-6)): 196 ± 129 ng·h/mL
- AUC(0-t) ([1]; both, AUC (0-t)): 117 ± 93 ng·h/mL
- AUC(0-inf) ([1]; both, AUC (inf)): 122 ± 97.5 ng·h/mL
- Tmax ([1]; both): 0.88 h
- half-life ([1]; both, mean elimination half-life): ~1.3 h
- half-life ([1]; both, t½): 1.22 ± 0.24 h
- AUC(0-t) ([1]; female, AUC(0-6)): 276 ± 151 ng·h/mL
- AUC(0-t) ([1]; female, AUC(0-t)): 173 ± 152 ng·h/mL
- AUC(0-inf) ([1]; female, AUC(inf)): 181 ± 161 ng·h/mL
- Tmax ([1]; female): 1 h
- half-life ([1]; female, t½): 1.17 ± 0.25 h
- AUC(0-t) ([1]; male, AUC(0-6)): 162 ± 113 ng·h/mL
- AUC(0-t) ([1]; male, AUC(0-t)): 93.1 ± 55.2 ng·h/mL
- AUC(0-inf) ([1]; male, AUC(inf)): 96.3 ± 55.7 ng·h/mL
- Tmax ([1]; male): 0.75 h
- half-life ([1]; male, t½): 1.24 ± 0.25 h
- mean AUC(0-6) under fasted conditions higher than fed ([2]; both): 127%
- mean Cmax under fasted conditions higher than fed ([2]; both): 213%
- t½ ([2]; both): 1.59 ± 0.63 (10) h
- t½ ([2]; female): 1.53 ± 0.08 (3) h
- t½ ([2]; male): 1.62 ± 0.77 (7) h
- AUC0-tlast ([3]; po, 150 mg): 54.0 ± 53.2 ng·h/mL
- AUC0-oo, geometric mean for the ratio 150 mg fed/150 mg fasted, point estimate ([3]; male): 1.87
- AUC0-tlast, geometric mean for the ratio 150 mg fed/150 mg fasted, point estimate ([3]; male): 1.92
- Cmax, geometric mean for the ratio 150 mg fed/150 mg fasted, point estimate ([3]; male): 1.18
- AUC0-oo ([3]; male, po, 150 mg): 55.4 ± 53.4 ng·h/mL
- Cmax ([3]; male, po, 150 mg): 36.1 ± 38.4 ng/mL
- Tmax ([3]; male, po, 150 mg): 0.66 h
- t1/2 ([3]; male, po, 150 mg): 2.06 ± 0.43 h
Structure (SMILES): Cc1ccc(C(=O)C(C)CN2CCCCC2)cc1 (stereo not shown) [Tolperisone, 2-methyl-1-(4-methylphenyl)-3-(1-piperidinyl)-1-propanone]

- AUC0-oo ([4]; fasted state): 1.82 ± 1.09 ng·h/mL
- AUC0-tlast ([4]; fasted state): 1.20 ± 1.01 ng·h/mL
- Cmax ([4]; fasted state): 1.70 ± 1.66 ng/mL
- Tmax ([4]; fasted state): 0.68 h
- t1/2 ([4]; fasted state): 0.55 ± 0.21 h
- λz ([4]; fasted state): 1.45 ± 0.51 h⁻¹
- AUC0-oo ([4]; fed state (high fat breakfast)): 3.92 ± 2.37 ng·h/mL
- AUC0-tlast ([4]; fed state (high fat breakfast)): 2.69 ± 2.18 ng·h/mL
- Cmax ([4]; fed state (high fat breakfast)): 2.56 ± 3.04 ng/mL
- Tmax ([4]; fed state (high fat breakfast)): 1.40 ± 0.77 h
- t1/2 ([4]; fed state (high fat breakfast)): 1.19 ± 0.80 h
- λz ([4]; fed state (high fat breakfast)): 0.95 ± 0.90 h⁻¹
- Tmax ([4]; fed state (high fat breakfast), listed as 4-HM-tolperisone): 1.38 h
- AUC0-oo, geometric mean for the ratio 150 mg fed/150 mg fasted, point estimate ([4]; Fed/fasted, 150 mg): 1.95
- AUC0-tlast, geometric mean for the ratio 150 mg fed/150 mg fasted, point estimate ([4]; Fed/fasted, 150 mg): 2.27
- Cmax, geometric mean for the ratio 150 mg fed/150 mg fasted, point estimate ([4]; Fed/fasted, 150 mg): 1.23
- concentration in blood plasma eight hours after study drug administration ([4]; all studied doses (150, 300, and 450 mg)): below the limit of quantification
- AUC(0-t) [5, 6]: 3.98 ± 2.48 (3) h · ng/mL
- AUC(inf) [5, 6]: 4.10 ± 2.55 (3) h · ng/mL
- Cmax [5, 6]: 2.06 ± 1.44 (3) ng/mL
- t½ [5, 6]: 1.03 ± 0.090 (3) h
- λz [5, 6]: 0.6787 ± 0.0627 (3) h^−1
- Tmax [5, 6]: 1.00 (3) h
- AUC(0-t) [5, 7]: 3.49 ± 1.47 (7) h · ng/mL
- AUC(inf) [5, 7]: 3.60 ± 1.48 (7) h · ng/mL
- Cmax [5, 7]: 2.30 ± 1.50 (7) ng/mL
- t½ [5, 7]: 1.16 ± 0.18 (7) h
- λz [5, 7]: 0.6081 ± 0.0792 (7) h^−1
- Tmax [5, 7]: 0.75 (7) h
- AUC(0-t) [5, 8]: 3.63 ± 1.69 (10) h · ng/mL
- AUC(inf) [5, 8]: 3.75 ± 1.72 (10) h · ng/mL
- Cmax [5, 8]: 2.22 ± 1.40 (10) ng/mL
- t½ [5, 8]: 1.12 ± 0.17 (10) h
- λz [5, 8]: 0.6293 ± 0.0788 (10) h^−1
- Tmax [5, 8]: 0.88 (10) h
- AUC(0-t) [5, 9]: 8.23 ± 5.46 (4) h · ng/mL
- AUC(inf) [5, 9]: 8.64 ± 5.79 (4) h · ng/mL
- Cmax [5, 9]: 3.29 ± 2.36 (4) ng/mL
- t½ [5, 9]: 1.04 ± 0.12 (4) h
- λz [5, 9]: 0.6700 ± 0.0749 (4) h^−1
- Tmax [5, 9]: 2.00 (4) h
- AUC(0-t) ([5]; Day 1 - 0800 Dose, Fed, Males): 4.22 ± 1.08 (6) h · ng/mL
- AUC(inf) ([5]; Day 1 - 0800 Dose, Fed, Males): 4.31 ± 1.12 (6) h · ng/mL
- Cmax ([5]; Day 1 - 0800 Dose, Fed, Males): 3.07 ± 0.68 (6) ng/mL
- t½ ([5]; Day 1 - 0800 Dose, Fed, Males): 1.03 ± 0.09 (6) h
- λz ([5]; Day 1 - 0800 Dose, Fed, Males): 0.6791 ± 0.0554 (6) h^−1
- Tmax ([5]; Day 1 - 0800 Dose, Fed, Males): 0.88 (6) h
- AUC(0-t) [5, 10]: 5.82 ± 3.86 (10) h · ng/mL
- AUC(inf) [5, 10]: 6.05 ± 4.11 (10) h · ng/mL
- Cmax [5, 10]: 3.16 ± 1.46 (10) ng/mL
- t½ [5, 10]: 1.03 ± 0.10 (10) h
- λz [5, 10]: 0.6754 ± 0.0599 (10) h^−1
- Tmax [5, 10]: 1.00 (10) h
- increase in the mean value for AUC(inf) on administration with food [5, 11]: 61%
- increase in the mean value for Cmax on administration with food [5, 11]: 42%
- Cmax [5, 12]: 1.83 ± 0.70 (3) ng/mL
- Tmax [5, 12]: 0.75 (3) h
- Cmax [5, 13]: 1.08 ± 0.68 (7) ng/mL
- Tmax [5, 13]: 1.50 (7) h
- Cmax [5, 14]: 1.30 ± 0.74 (10) ng/mL
- Tmax [5, 14]: 1.25 (10) h
- Cmax [5, 15]: 2.23 ± 1.99 (4) ng/mL
- Tmax [5, 15]: 1.25 (4) h
- Cmax ([5]; Day 2 - 2200 Dose, Fed, Males): 1.24 ± 0.60 (6) ng/mL
- Tmax ([5]; Day 2 - 2200 Dose, Fed, Males): 1.00 (6) h
- Cmax [5, 16]: 1.64 ± 1.33 (10) ng/mL
- Tmax [5, 16]: 1.00 (10) h
- mean AUC(0-6) under fed conditions higher than fasted ([5]; Day 7, 0800 dose, both sexes): 12%
- mean Cmax under fed conditions lower than fasted ([5]; Day 7, 0800 dose, both sexes): 12%
- AUC(0-6) [5, 17]: 5.78 ± 2.18 (3) h · ng/mL
- Cmax [5, 17]: 3.79 ± 1.46 (3) ng/mL
- t½ [5, 17]: 1.04 ± 0.115 (3) h
- λz [5, 17]: 0.6728 ± 0.0705 (3) h^−1
- Tmax [5, 17]: 0.75 (3) h
- AUC(0-6) [5, 18]: 4.13 ± 2.37 (7) h · ng/mL
- Cmax [5, 18]: 2.42 ± 1.62 (7) ng/mL
- t½ [5, 18]: 1.23 ± 0.22 (7) h
- λz [5, 18]: 0.5766 ± 0.0978 (7) h^−1
- Tmax [5, 18]: 0.75 (7) h
- AUC(0-6) [5, 19]: 4.63 ± 2.33 (10) h · ng/mL
- Cmax [5, 19]: 2.83 ± 1.63 (10) ng/mL
- t½ [5, 19]: 1.18 ± 0.21 (10) h
- λz [5, 19]: 0.6054 ± 0.0982 (10) h^−1
- Tmax [5, 19]: 0.75 (10) h
- AUC(0-6) [5, 20]: 7.28 ± 4.43 (4) h · ng/mL
- Cmax [5, 20]: 3.67 ± 1.97 (4) ng/mL
- t½ [5, 20]: 1.08 ± 0.35 (2) h
- λz [5, 20]: 0.6783 ± 0.2222 (2) h^−1
- Tmax [5, 20]: 1.13 (4) h
- AUC(0-6) ([5]; Day 7 - 0800 Dose, Fed, Males): 3.82 ± 1.23 (6) h · ng/mL
- Cmax ([5]; Day 7 - 0800 Dose, Fed, Males): 1.70 ± 0.67 (6) ng/mL
- t½ ([5]; Day 7 - 0800 Dose, Fed, Males): 1.08 ± 0.32 (6) h
- λz ([5]; Day 7 - 0800 Dose, Fed, Males): 0.6791 ± 0.1380 (6) h^−1
- Tmax ([5]; Day 7 - 0800 Dose, Fed, Males): 1.00 (6) h
- AUC(0-6) [5, 21]: 5.20 ± 3.25 (10) h · ng/mL
- Cmax [5, 21]: 2.49 ± 1.61 (10) ng/mL
- t½ [5, 21]: 1.08 ± 0.31 (08) h
- λz [5, 21]: 0.6789 ± 0.1437 (08) h^−1
- Tmax [5, 21]: 1.00 (10) h
- Cmax [5, 22]: 3.43 ± 2.15 (3) ng/mL
- Tmax [5, 22]: 1.00 (3) h
- Cmax [5, 23]: 1.78 ± 1.23 (7) ng/mL
- Tmax [5, 23]: 1.03 (7) h
- Cmax [5, 24]: 2.27 ± 1.64 (10) ng/mL
- Tmax [5, 24]: 1.00 (10) h
- Cmax [5, 25]: 2.35 ± 1.97 (4) ng/mL
- Tmax [5, 25]: 1.25 (4) h
- Cmax ([5]; Day 7 - 2200 Dose, Fed, Males): 2.09 ± 1.33 (6) ng/mL
- Tmax ([5]; Day 7 - 2200 Dose, Fed, Males): 0.88 (6) h
- Cmax [5, 26]: 2.20 ± 1.51 (10) ng/mL
- Tmax [5, 26]: 1.00 (10) h
- accumulation (increase in Cmax over the seven days of dosing) ([5]; seven days of dosing, up to 150 mg three times daily): little or no accumulation
- mean elimination half-life ([5]; summary, not dependent on sex, food or duration of dosing): ~1.1 h
Structure (SMILES): CC(CN1CCCCC1)C(=O)c1ccc(CO)cc1 (stereo not shown) [4-HM-Tolperisone, 4-hydroxymethyl-tolperisone]
